Reference: US20220249441A1, “Homodimeric Tobramycin Adjuvant Repurposes Novobiocin as an Effective Antibacterial Agent Against Gram-Negative Bacteria” (priority 2019, published 2022)

How the values were obtained:
[1] = system: P. aeruginosa; assay: Checkerboard assay (antibiotic + adjuvant combination MIC); type: cell-based, Pseudomonas aeruginosa; details: for MIC of Novobiocin + adjuvant (7.1 μM): PMBN or 1 at 7.1 μM
Experimental: (§1) Antimicrobial Susceptibility Assay. The in vitro antimicrobial activity of all compounds/antibiotics against a panel of bacteria was evaluated by microbroth dilution method in accordance with the Clinical and Laboratory Standards Institute (CLSI) guidelines (using ATCC strains as quality control strains) (54). Overnight grown bacterial cultures were diluted in saline to achieve a 0.5 McFarland turbidity, followed by 1:50 dilution in Mueller-Hinton broth (MHB) for inoculation to a final concentration of approximately 5×10^5 CFU/mL. […] The lowest concentration that prevented the visible growth of bacteria was defined as the MIC for each antimicrobial agent. The broth with or without bacterial cells was used as positive or negative control, respectively.
(§2) Checkerboard Assay. Combination studies with different antibiotics were performed in 96-well plates as previously described (19). Briefly, the antibiotic of interest was serially diluted in MHB along the abscissa while the adjuvant (tobramycin homodimer) was serially diluted in MHB along the ordinate. This creates a 10×7 matrices wherein each well consists of a combination of different antibiotic and adjuvant concentrations. Overnight grown bacterial cultures were diluted in saline to achieve a 0.5 McFarland turbidity, followed by 1:50 dilution in Mueller-Hinton broth (MHB) for inoculation to a final concentration of approximately 5×10^5 CFU/mL. […] MIC was recorded as wells with the lowest concentration of drugs with no bacterial growth. The fractional inhibitory concentration (FIC) for each antibiotic was calculated by dividing the MIC of the antibiotic in the presence of adjuvant by the MIC of the antibiotic alone. Similarly, the FIC of adjuvant was calculated by dividing the MIC of the adjuvant in the presence of antibiotic by the MIC of the adjuvant alone. FIC index is the sum of both FICs. FIC indices of ≤0.5 were deemed synergistic; >0.5-4, no interaction; and >4, antagonistic.

[2] = system: P. aeruginosa PAO1 and efflux deficient mutants, MDR/XDR isolates; assay: microbe, parasite or virus in culture; type: cell-based, Pseudomonas aeruginosa
Experimental: Antimicrobial Susceptibility Assay. The in vitro antimicrobial activity of all compounds/antibiotics against a panel of bacteria was evaluated by microbroth dilution method in accordance with the Clinical and Laboratory Standards Institute (CLSI) guidelines (using ATCC strains as quality control strains) (54). […] The broth with or without bacterial cells was used as positive or negative control, respectively.

[3] = system: panel of Gram-positive and Gram-negative bacteria; assay: Antimicrobial susceptibility assay against a panel of bacteria; type: cell-based; details: some isolates
Experimental: as §1

[4] = system: A. baumannii; assay: Checkerboard assay (antibiotic + adjuvant combination MIC); type: cell-based, Acinetobacter baumannii
Experimental: as §1, §2

[5] = system: E. cloacae; assay: as above; type: cell-based, Enterobacter cloacae; details: EC 118568; PMBN or 1 at 7.1 μM
Experimental: as §1, §2

[6] = system: E. coli; assay: as above; type: cell-based, Escherichia coli; details: PMBN or 1 at 7.1 μM
Experimental: as §1, §2

[7] = system: K. pneumoniae; assay: as above; type: cell-based, Klebsiella pneumoniae; details: KP 113254; PMBN or 1 at 7.1 μM
Experimental: as §1, §2

[8] = P. aeruginosa PAO1, compound at 8 μM
[9] = PA 262-101856, compound at 8 μM
[10] = PA 264-104354, compound at 8 μM
[11] = PA O200 (efflux-deficient), compound at 8 μM
[12] = PA O750 (efflux-deficient), compound at 8 μM

N=C(N)NC[C@H]1O[C@H](O[C@H]2[C@H](OCCCCCCCCCCCCN3CCN(c4cc5c(cc4F)c(=O)c(C(=O)O)cn5C4CC4)CC3)[C@@H](O[C@H]3O[C@H](CO)[C@@H](O)[C@H](NC(=N)N)[C@H]3O)[C@H](NC(=N)N)C[C@@H]2NC(=N)N)[C@H](NC(=N)N)C[C@@H]1O [Compound 27, Guanidinylated Tobramycin-Ciprofloxacin Conjugate]
8 µg/mL: MIC of Piperacillin + compound [1, 8] | MIC of ATM in the presence of compound ([1]; PA 260-97103, compound at 8 μM) | MIC of IPM in the presence of compound ([1]; PA 260-97103, compound at 8 μM) | MIC of IPM in the presence of compound ([1]; PA 91433, compound at 8 μM) | MIC of ATM in the presence of compound ([1]; PA 114228, compound at 8 μM)
128 µg/mL: MIC of CAZ in the presence of compound [1, 10]
2 µg/mL: MIC of CAZ in the presence of compound ([1]; PA 101885, compound at 8 μM) | MIC of IPM in the presence of compound ([1]; PA 101885, compound at 8 μM) | MIC of ATM in the presence of compound ([1]; PA 108590, compound at 8 μM) | MIC of CAZ in the presence of compound ([1]; PA 108590, compound at 8 μM) | MIC of CAZ in the presence of compound ([1]; PA 114228, compound at 8 μM) | MIC of IPM in the presence of compound [1, 11] | MIC ([2]; PA0750 (efflux-deficient))
4 µg/mL: MIC of CAZ in the presence of compound ([1]; PA 91433, compound at 8 μM) | MIC of IPM in the presence of compound ([1]; PA 100036, compound at 8 μM) | MIC of ATM in the presence of compound ([1]; PA 101243, compound at 8 μM) | MIC of IPM in the presence of compound ([1]; PA 101243, compound at 8 μM) | MIC of ATM in the presence of compound ([1]; PA 101885, compound at 8 μM) | MIC of IPM in the presence of compound ([1]; PA 108590, compound at 8 μM)
16 µg/mL: MIC of CAZ in the presence of compound ([1]; PA 260-97103, compound at 8 μM) | MIC of CAZ in the presence of compound [1, 9] | MIC of IPM in the presence of compound [1, 9] | MIC of IPM in the presence of compound [1, 10] | MIC of IPM in the presence of compound ([1]; PA 86052, compound at 8 μM) | MIC of ATM in the presence of compound ([1]; PA 91433, compound at 8 μM) | MIC of ATM in the presence of compound ([1]; PA 100036, compound at 8 μM) | MIC of CAZ in the presence of compound ([1]; PA 101243, compound at 8 μM) | MIC of IPM in the presence of compound ([1]; PA 109084, compound at 8 μM) | MIC ([2]; PAO200 (second column so headed))
64 µg/mL: MIC of IPM in the presence of compound ([1]; PA 259-96918, compound at 8 μM) | MIC of IPM in the presence of compound ([1]; PA 88949, compound at 8 μM)
512 µg/mL: MIC of CAZ in the presence of compound ([1]; PA 259-96918, compound at 8 μM)
32 µg/mL: MIC of ATM in the presence of compound ([1]; PA 259-96918, compound at 8 μM) | MIC of ATM in the presence of compound [1, 9] | MIC of ATM in the presence of compound [1, 10] | MIC of ATM in the presence of compound ([1]; PA 86052, compound at 8 μM) | MIC of CAZ in the presence of compound ([1]; PA 86052, compound at 8 μM) | MIC of ATM in the presence of compound ([1]; PA 88949, compound at 8 μM) | MIC of CAZ in the presence of compound ([1]; PA 88949, compound at 8 μM) | MIC of ATM in the presence of compound ([1]; PA 107092, compound at 8 μM) | MIC of CAZ in the presence of compound ([1]; PA 107092, compound at 8 μM) | MIC of IPM in the presence of compound ([1]; PA 107092, compound at 8 μM) | MIC of ATM in the presence of compound ([1]; PA 109084, compound at 8 μM) | MIC of CAZ in the presence of compound ([1]; PA 109084, compound at 8 μM) | MIC ([2]; PAO1 (wild-type))
6 µg/mL: MIC of CAZ in the presence of compound ([1]; PA 100036, compound at 8 μM)
0.5 µg/mL: MIC of Aztreonam + compound [1, 8] | MIC of ATM in the presence of compound ([1]; PAO1, compound at 8 μM)
0.06 µg/mL: MIC of ATM in the presence of compound [1, 11] | MIC of ATM in the presence of compound [1, 12]
1 µg/mL: MIC of Imipenem + compound [1, 8] | MIC of IPM in the presence of compound ([1]; PA 114228, compound at 8 μM) | MIC of IPM in the presence of compound [1, 12] | MIC of IPM in the presence of compound ([1]; PAO1, compound at 8 μM)
0.25 µg/mL: MIC of Ceftazidime + compound [1, 8] | MIC of CAZ in the presence of compound [1, 11] | MIC of CAZ in the presence of compound [1, 12] | MIC of CAZ in the presence of compound ([1]; PAO1, compound at 8 μM)
some modest residual activity: intrinsic antimicrobial activity [3]

polymyxin B nonapeptide [PMBN, reference compound]
did not potentiate: potentiation of novobiocin ([4]; colistin-resistant mutant B of A. baumannii ATCC 17978)
32 µg/mL: MIC of Novobiocin + adjuvant (7.1 μM) ([6]; E. coli 94474)
128 µg/mL: MIC of Novobiocin + adjuvant (7.1 μM) ([1]; PA 114228)
1 µg/mL: MIC of Novobiocin + adjuvant (7.1 μM) ([4]; AB 92247, PMBN or 1 at 7.1 μM)
8 µg/mL: MIC of Novobiocin + adjuvant (7.1 μM) ([1]; PA 101243)
64 µg/mL: MIC of Novobiocin + adjuvant (7.1 μM) [7]
4 µg/mL: MIC of Novobiocin + adjuvant (7.1 μM) ([1]; PA 91433) | MIC of Novobiocin + adjuvant (7.1 μM) ([1]; PAO1) | MIC of Novobiocin + adjuvant (7.1 μM) ([6]; E. coli 94393)
512 µg/mL: MIC of Novobiocin + adjuvant (7.1 μM) [5]
